Assay results published in patent US10905692B2, “Combination therapy for treating malignancies” (Agios Pharmaceuticals, Inc., priority 2015, dated 2021).

Assay: blood bilirubin in subjects with a UGT1A1 mutation receiving COMPOUND 1
Assay type: in vivo, human
Description: All toxicity ≥Grade 3 not due to underlying AML or complications of the disease or myelosuppressive treatment, with the exception of ≥Grade 3 blood bilirubin increases in subjects with a UGT1A1 mutation receiving COMPOUND 1.

With `CC(C)(O)CNc1nc(Nc2ccnc(C(F)(F)F)c2)nc(-c2cccc(C(F)(F)F)n2)n1` [COMPOUND 1, 2-methyl-1-[(4-[6-(trifluoromethyl)pyridin-2-yl]-6-{[2-(trifluoromethyl)pyridin-4-yl]amino}-1,3,5-triazin-2-yl)amino]propan-2-ol] the blood bilirubin increases was “isolated blood bilirubin increases have been seen”.
